US20260242416A1, “ANTIMICROBIAL PEPTIDES” (priority 2023, published 2026)
Where two headings read alike, the source gives them in different places. Where a SMILES comes first, the peptide text is derived from it.

Legend:
[1] = test system: E. coli ATCC 25922; type: cell-based, Escherichia coli
Description: (§1) Bacteria were grown overnight at 37° C. in Mueller-Hinton Broth (MHB; Sigma-Aldrich, St. Louis. MO, USA) in a shaking incubator and aliquoted into cryovials with a 50% glycerol solution in a 1:1 ratio. No additives were added to the MHB during the growth of bacterial isolates. Glycerol stocks were stored at −80° C.
(§2) The antimicrobial activity of the putative AMPs was determined by a broth microdilution assay as described by the Clinical and Laboratory Standards Institute, with the published adaptations for testing of cationic peptides. Escherichia coli 25922 and Staphylococcus aureus 29213 isolates were purchased from the American Type Culture Collection (ATCC; Manassas, VA, USA). A human clinical isolate of Salmonella enterica serovar Enteritidis was provided by the BC Centre for Disease Control. Bacteria from stocks stored at −80° C. were streaked onto nonselective Columbia blood agar with 5% sheep blood (Oxoid) and incubated overnight at 37° C. Next, 2-4 colonies were streaked onto a new agar plate to ensure uniform health of colonies used in the broth microdilution assay. Isolated colonies were suspended in MHB and the optical density was measured with a spectrophotometer to create an initial inoculum concentration of approximately 1×10^8 cfu/mL. The inoculum was diluted 1:250 to a final concentration of 2-8×10^5 cfu/mL, which was confirmed by performing a Total Viability Count (TVC). The TVC consisted of plating a 1:1000 dilution of the final inoculum on nonselective media and was also used to confirm the health and purity of the inoculum in each trial.
(§3) Lyophilized 80 μg peptide aliquots synthesized by GenScript (Piscataway, NJ, USA) were resuspended to 1.28 mg/mL with UltraPure water (Thermo Fisher Scientific, Waltham, MA, USA) and serially diluted in polypropylene 96-well microtiter plates (Greiner Bio-One #650261, Kremsmunster, Austria) from 128 down to 0.5 μg/mL. Two columns per plate were reserved for growth and sterility controls. Inoculum was added to the wells containing the peptide and the growth control. Plates were incubated for 20-24 h at 37° C. The minimum inhibitory concentration (MIC) was determined as the lowest peptide concentration where there was no visible bacterial growth.

[2] = test system: Salmonella enterica serovar Enteritidis (human clinical isolate); type: cell-based
Description: as §1, §2, §3

[3] = test system: S. aureus ATCC 29213; type: cell-based, Staphylococcus aureus
Description: as §1, §2, §3

[4] = Table 14, first value of the cell, three independent experiments, highest concentration tested 128
[5] = Table 14, second value of the cell, three independent experiments, highest concentration tested 128
[6] = Table 14, third value of the cell, three independent experiments, highest concentration tested 128
[7] = serovar Enteritidis (human clinical isolate)

CC[C@H](C)[C@H](NC(=O)CNC(=O)[C@H](CO)NC(=O)[C@H](CC(C)C)NC(=O)[C@H](CC(C)C)NC(=O)CN)C(=O)N[C@@H](CC(C)C)C(=O)NCC(=O)N[C@@H](C)C(=O)NCC(=O)N[C@@H](CCCCN)C(=O)N[C@@H](CCCCN)C(=O)O [RaOm1, GLLSGILGAGKK] (H-GLLSGILGAGKK-OH; N-terminus and C-terminus assumed)
>128/>128/>128 ug/mL: MIC (ug/mL) E. coli [1, 4] | MIC (ug/mL) S. Enteritidis [2, 5] | MIC (ug/mL) S. aureus [3, 6]

CC[C@H](C)[C@H](NC(=O)CN)C(=O)N[C@@H](Cc1ccccc1)C(=O)N[C@@H](CO)C(=O)N[C@@H](CC(C)C)C(=O)N[C@H](C(=O)N[C@@H](CCCCN)C(=O)NCC(=O)N[C@@H](C)C(=O)N[C@@H](C)C(=O)N[C@@H](CCCCN)C(=O)O)[C@@H](C)CC [LeBo1, GIFSLIKGAAK] (H-GIFSLIKGAAK-OH; N-terminus and C-terminus assumed)
>128/>128/>128 ug/mL: MIC (ug/mL) E. coli [1, 4] | MIC (ug/mL) S. Enteritidis [2, 5] | MIC (ug/mL) S. aureus [3, 6]

CC[C@H](C)[C@H](NC(=O)[C@H](Cc1c[nH]cn1)NC(=O)[C@H](Cc1c[nH]cn1)NC(=O)[C@H](Cc1c[nH]cn1)NC(=O)[C@@H](N)CCCCN)C(=O)N[C@@H](CCCCN)C(=O)N[C@@H](CC(C)C)C(=O)N[C@@H](CCCNC(=N)N)C(=O)N[C@@H](Cc1c[nH]cn1)C(=O)NCC(=O)N[C@@H](CCCNC(=N)N)C(=O)N[C@@H](Cc1c[nH]cn1)C(=O)N[C@@H](CCCNC(=N)N)C(=O)N[C@@H](CCCNC(=N)N)C(=O)N[C@@H](CO)C(=O)N[C@H](C(=O)N[C@@H](CC(C)C)C(=O)N[C@@H](CCCNC(=N)N)C(=O)N[C@H](C(=O)N[C@@H](CC(C)C)C(=O)N[C@H](C(=O)O)C(C)C)[C@@H](C)O)C(C)C [CaCa3] (H-KHHHIKLRHGRHRRSVLRTLV-OH; N-terminus and C-terminus assumed)
>128/>128/>128 ug/mL: MIC (ug/mL) E. coli ([1]; ATCC 25922) | MIC (ug/mL) S. Enteritidis [2, 7] | MIC (ug/mL) S. aureus ([3]; ATCC 29213)

CC[C@H](C)[C@H](NC(=O)[C@@H](N)CO)C(=O)N[C@@H](CC(C)C)C(=O)N[C@@H](CO)C(=O)N[C@H](C(=O)N[C@@H](CC(C)C)C(=O)N[C@@H](CO)C(=O)N[C@@H](Cc1c[nH]cn1)C(=O)N[C@@H](CCCCN)C(=O)N[C@@H](CCCNC(=N)N)C(=O)O)[C@@H](C)O [ApMe5, SILSTLSHKR] (H-SILSTLSHKR-OH; N-terminus and C-terminus assumed)
>128/>128/>128 ug/mL: MIC (ug/mL) E. coli ([1]; ATCC 25922) | MIC (ug/mL) S. Enteritidis [2, 7] | MIC (ug/mL) S. aureus ([3]; ATCC 29213)

CC(C)C[C@H](NC(=O)[C@H](CO)NC(=O)[C@H](C)NC(=O)[C@@H](NC(=O)[C@@H](N)CO)C(C)C)C(=O)N[C@@H](C)C(=O)N[C@@H](CCCCN)C(=O)N[C@@H](CC(N)=O)C(=O)N[C@@H](CO)C(=O)N[C@@H](C)C(=O)N[C@@H](Cc1c[nH]c2ccccc12)C(=O)N1CCC[C@H]1C(=O)N[C@H](C(=O)N[C@@H](CO)C(=O)N[C@@H](CC(C)C)C(=O)N[C@@H](CCCCN)C(=O)N[C@@H](CCCNC(=N)N)C(=O)O)C(C)C [BoAr4, SVASLAKNSAWPVSLKR] (H-SVASLAKNSAWPVSLKR-OH; N-terminus and C-terminus assumed)
>128/>128/>128 ug/mL: MIC (ug/mL) E. coli ([1]; ATCC 25922) | MIC (ug/mL) S. Enteritidis [2, 7] | MIC (ug/mL) S. aureus ([3]; ATCC 29213)

CC(C)C[C@H](NC(=O)[C@H](CCCCN)NC(=O)[C@H](CCCCN)NC(=O)[C@H](CC(C)C)NC(=O)[C@@H](NC(=O)[C@H](Cc1ccc(O)cc1)NC(=O)[C@@H](NC(=O)CNC(=O)[C@H](CCC(=O)O)NC(=O)[C@H](CC(N)=O)NC(=O)[C@H](Cc1c[nH]c2ccccc12)NC(=O)[C@@H]1CCCN1C(=O)[C@H](CO)NC(=O)[C@H](CO)NC(=O)[C@@H]1CCCN1C(=O)[C@H](CC(C)C)NC(=O)[C@@H](N)Cc1ccccc1)[C@@H](C)O)C(C)C)C(=O)N[C@@H](CCCCN)C(=O)N[C@@H](CO)C(=O)O [PeNi15, FLPSSPWNEGTYVLKKLKS] (H-FLPSSPWNEGTYVLKKLKS-OH; N-terminus and C-terminus assumed)
>128/>128/>128 ug/mL: MIC (ug/mL) E. coli ([1]; ATCC 25922) | MIC (ug/mL) S. Enteritidis [2, 7] | MIC (ug/mL) S. aureus ([3]; ATCC 29213)

CC[C@H](C)[C@H](NC(=O)[C@H](CCCCN)NC(=O)[C@H](CC(C)C)NC(=O)[C@H](Cc1c[nH]c2ccccc12)NC(=O)[C@@H]1CCCN1C(=O)[C@H](Cc1c[nH]cn1)NC(=O)[C@H](CCCCN)NC(=O)[C@H](CC(C)C)NC(=O)[C@H](CS)NC(=O)[C@H](CCC(=O)O)NC(=O)[C@H](C)NC(=O)[C@H](C)NC(=O)[C@@H](NC(=O)[C@H](C)N)[C@@H](C)O)C(=O)N[C@@H](CCCCN)C(=O)N[C@@H](CCCCN)C(=O)O [BoAr2, ATAAECLKHPWLKIKK] (H-ATAAECLKHPWLKIKK-OH; N-terminus and C-terminus assumed)
>128/>128/>128 ug/mL: MIC (ug/mL) E. coli ([1]; ATCC 25922) | MIC (ug/mL) S. Enteritidis [2, 7] | MIC (ug/mL) S. aureus ([3]; ATCC 29213)

C[C@H](NC(=O)CNC(=O)[C@H](CCCNC(=N)N)NC(=O)[C@H](CCC(=O)O)NC(=O)[C@H](CCC(=O)O)NC(=O)[C@@H](N)CCCCN)C(=O)N1CCC[C@H]1C(=O)N[C@@H](CCCCN)C(=O)NCC(=O)N[C@@H](CS)C(=O)N[C@@H](Cc1c[nH]c2ccccc12)C(=O)N[C@H](C(=O)N[C@@H](CCCCN)C(=O)N[C@@H](CO)C(=O)N[C@@H](Cc1ccc(O)cc1)C(=O)N1CCC[C@H]1C(=O)N1CCC[C@H]1C(=O)N[C@@H](CCCCN)C(=O)N1CCC[C@H]1C(=O)N[C@@H](CS)C(=O)N[C@@H](CO)C(=O)NCC(=O)N[C@@H](CCCCN)C(=O)N[C@@H](CCCNC(=N)N)C(=O)O)[C@@H](C)O [PeNi13] (H-KEERGAPKGCWTKSYPPKPCSGKR-OH; N-terminus and C-terminus assumed)
>128/>128/>128 ug/mL: MIC (ug/mL) E. coli ([1]; ATCC 25922) | MIC (ug/mL) S. Enteritidis [2, 7] | MIC (ug/mL) S. aureus ([3]; ATCC 29213)

CC(C)[C@H](N)C(=O)N[C@@H](CCCCN)C(=O)N[C@@H](CS)C(=O)N[C@@H](CCCNC(=N)N)C(=O)N[C@H](C(=O)N[C@@H](CCCNC(=N)N)C(=O)N[C@@H](CCCNC(=N)N)C(=O)O)C(C)C [ApMe1, VKCRVRR] (H-VKCRVRR-OH; N-terminus and C-terminus assumed)
>128/>128/>128 ug/mL: MIC (ug/mL) E. coli ([1]; ATCC 25922) | MIC (ug/mL) S. Enteritidis [2, 7] | MIC (ug/mL) S. aureus ([3]; ATCC 29213)

CC[C@H](C)[C@H](NC(=O)[C@H](Cc1ccccc1)NC(=O)[C@H](CCCCN)NC(=O)[C@@H](NC(=O)[C@H](CCCCN)NC(=O)[C@@H](N)CC(N)=O)[C@@H](C)CC)C(=O)N[C@@H](CC(N)=O)C(=O)N[C@@H](CCCCN)C(=O)N[C@@H](Cc1ccc(O)cc1)C(=O)N[C@H](C(=O)N[C@@H](CCCCN)C(=O)N[C@@H](CCCCN)C(=O)N[C@H](C(=O)N[C@@H](CCC(N)=O)C(=O)N[C@@H](CC(C)C)C(=O)N[C@@H](CCCCN)C(=O)N[C@@H](CCCCN)C(=O)N[C@H](C(=O)N[C@@H](CC(C)C)C(=O)N[C@H](C(=O)N[C@@H](CCCCN)C(=O)N[C@@H](CO)C(=O)O)C(C)C)[C@@H](C)CC)C(C)C)C(C)C [BoCo1] (H-NKIKFINKYVKKVQLKKILVKS-OH; N-terminus and C-terminus assumed)
>128/>128/>128 ug/mL: MIC (ug/mL) E. coli ([1]; ATCC 25922) | MIC (ug/mL) S. Enteritidis [2, 7] | MIC (ug/mL) S. aureus ([3]; ATCC 29213)

CC(C)C[C@H](NC(=O)[C@H](C)NC(=O)[C@@H](NC(=O)[C@H](CC(=O)O)NC(=O)[C@H](CCCNC(=N)N)NC(=O)[C@H](CCCCN)NC(=O)[C@H](Cc1ccccc1)NC(=O)[C@@H](NC(=O)[C@H](CCC(=O)O)NC(=O)[C@H](CCCCN)NC(=O)[C@H](Cc1c[nH]cn1)NC(=O)[C@H](C)NC(=O)CN)C(C)C)[C@@H](C)O)C(=O)N[C@H](C(=O)N[C@@H](CCCCN)C(=O)N[C@@H](CCC(=O)O)C(=O)N[C@@H](C)C(=O)N[C@@H](C)C(=O)N[C@@H](CCCCN)C(=O)N[C@@H](CCCCN)C(=O)N[C@@H](C)C(=O)N[C@@H](CCCCN)C(=O)N[C@@H](CCCCN)C(=O)O)[C@@H](C)O [ApMe2] (H-GAHKEVFKRDTALTKEAAKKAKK-OH; N-terminus and C-terminus assumed)
>128/>128/>128 ug/mL: MIC (ug/mL) E. coli ([1]; ATCC 25922) | MIC (ug/mL) S. Enteritidis [2, 7] | MIC (ug/mL) S. aureus ([3]; ATCC 29213)
